Laboratory results reported in patent US20150164874A1, “PIRFENIDONE AND ANTI-FIBROTIC THERAPY IN SELECTED PATIENTS” (INTERMUNE, INC., priority 2011, published 2015).

What was measured:
[1] = tested on: IPF patients with mild to moderate impairment in lung function; assay: Phase 3 trials Study 1 and Study 2 of pirfenidone vs placebo in IPF patients, retrospective re-analysis (ITT vs novel selection criteria); format: in vivo, human; conditions: for 6MWT change from baseline, Relative Δ / % DLco change from baseline, Relative Δ / % FVC ≧10% decline, Relative Δ / Progression-free survival, time to event HR / SpO2 During 6MWT change from baseline, Relative Δ / Survival, time to event HR / UCSD SOBQ (dyspnea) change from baseline, Relative Δ / Worsening IPF, time to event HR: Study 1 and Study 2 pooled, pirfenidone vs placebo; for Interaction with Treatment: Group with Greater Pirfenidone Effect: multivariate model of FVC decline at 72 weeks
Source text: Two multinational, randomized, double-blind, placebo-controlled Phase 3 trials, referred to herein as Study 1 and Study 2, were designed and performed to evaluate the safety and efficacy of pirfenidone in IPF patients with mild to moderate impairment in lung function. Both trials enrolled patients in North America, Europe and Australia with roughly 75% of the total 779 patients enrolled in North America.
Study 1 enrolled a total of 344 patients. Patients were randomized 1:1 to receive a total daily dose of 2403 mg pirfenidone, or placebo. Study 2 enrolled a total of 435 patients, and patients were randomized 2:2:1 to receive a total daily dose of 2403 mg pirfenidone, or placebo, or a total daily dose of 1197 mg pirfenidone, respectively. The total daily dose of pirfenidone was administered in three divided doses, three times per day.
If the surgical lung biopsy or HRCT scans were ambiguous, the slides or HRCT images were evaluated by an adjudicator for a second opinion.
Exclusion criteria included: FEV1/FVC<0.7 after bronchodilator administration, bronchodilator response, RV>120%, history of significant environmental exposure known to cause pulmonary fibrosis, and diagnosis of connective tissue disease or other known explanation of interstitial lung disease (ILD).
Enrollment of both trials was completed in less than 13 months following randomization of the first patient into the program in late April 2006. Ninety-seven percent (97%) of all patients in the two studies who were living and had not received a lung transplant, completed their Week 72 study visit.
The primary endpoint of both trials was change in percent predicted Forced Vital Capacity (FVC) after 72 weeks of treatment evaluated with a nonparametric rank ANCOVA analysis. The pre-specified secondary endpoints monitored during the studies included: (a) Time to worsening of IPF, defined as time to acute IPF exacerbation, IPF-related death, lung transplant or respiratory hospitalization, whichever comes first; (b) Progression-free survival defined as time to the first occurrence of either of the following (as compared to the patient's baseline): (1) 10% absolute decline in percent predicted FVC, or (2) 15% absolute decline in percent predicted Hb-corrected DL(CO), or (3) death (in the case of FVC or DL(CO), the decline must be confirmed at two consecutive visits at least 6 weeks apart); (c) Categorical assessment of absolute change from Baseline to Week 72 in percent predicted FVC; (d) Change from Baseline to Week 72 in dyspnea measured by the University of California at San Diego Shortness-of-Breath Questionnaire (UCSD SOBQ); (e) Change from Baseline to Week 72 in the percent predicted Hb-corrected DL(CO); (f) Change from Baseline to Week 72 in the worst oxygen saturation by pulse oximetry (SpO2) measurement observed during the Six-Minute Walk Test; (g) Change from Baseline to Week 72 in distance walked in the Six-Minute Walk Test (6MWT).
After the studies were completed, a retrospective multivariate model of data identified predictors of greater FVC decline at 72 weeks and variables that have a statistical interaction with pirfenidone treatment (i.e. the magnitude of the pirfenidone treatment effect is different at different levels of these variables).
Data from Study 1 and Study 2 were re-analyzed, selecting patients according to the following novel criteria instead of the original Intention To Treat (IIT) criteria:
(c) Time since IPF diagnosis >0.5 years and <48 months
Mean change in FVC in pirfenidone-treated vs. placebo-treated groups from Study 1 and Study 2, for the original patient population selected using the ITT criteria, is shown in FIG. 2A. When the patient population is instead selected using the novel criteria above, the mean change in FVC in pirfenidone-treated vs. placebo-treated groups for the patient is shown in FIG. 2B. Patients in both pirfenidone-treated and placebo-treated groups experienced a decline in mean % FVC from baseline. […]

[2] = tested on: IPF patients with mild to moderate impairment in lung function; assay: Phase 3 study of Actimmune in 826 IPF patients, retrospective analysis of FVC progression; format: in vivo, human; conditions: Phase 3 study 2003-2007
Source text: FIGS. 1A-1D depicts a analysis of FVC progression from a clinical trial involving a different drug, interferon gamma-lb, which is inert with respect to effect on efficacy outcomes, in 826 patients with IPF, when the patients are segregated according to % FVC (FIG. 1A), % DLco (FIG. 1B), time since IPF diagnosis (FIG. 1C) and FEV1/FVC ratio (FIG. 1D).
In a prior trial involving 826 patients, data regarding progression of FVC was collected as part of a randomized, double-blind, placebo-controlled Phase 3 study conducted from 2003-2007 that was designed to evaluate the safety and efficacy of Actimmune(R) in IPF patients with mild to moderate impairment in lung function.

[3] = Study 1 and Study 2, novel criteria, week 72
[4] = Study 1 and Study 2, original ITT criteria, week 48
[5] = Study 1 and Study 2, original ITT criteria, week 72

Molecule: Cc1ccc(=O)n(-c2ccccc2)c1 [pirfenidone, 5-methyl-1-phenyl-2-(1H)-pyridone]
- 6MWT change from baseline, Relative Δ ([1]; Novel criteria, week 48): 64.2%
- % DLco change from baseline, Relative Δ ([1]; Novel criteria, week 48): 36.9%
- % FVC ≧10% decline, Relative Δ ([1]; Novel criteria, week 48): 60.4%
- Progression-free survival, time to event HR ([1]; Novel criteria, week 48): 0.31
- SpO2 During 6MWT change from baseline, Relative Δ ([1]; Novel criteria, week 48): 62.3%
- Survival, time to event HR ([1]; Novel criteria, week 48): 0.16
- UCSD SOBQ (dyspnea) change from baseline, Relative Δ ([1]; Novel criteria, week 48): −46.5%
- Worsening IPF, time to event HR ([1]; Novel criteria, week 48): 0.75
- 6MWT change from baseline, Relative Δ ([1]; Pooled ITT, week 48): 41%
- % DLco change from baseline, Relative Δ ([1]; Pooled ITT, week 48): 16%
- % FVC ≧10% decline, Relative Δ ([1]; Pooled ITT, week 48): 39%
- Progression-free survival, time to event HR ([1]; Pooled ITT, week 48): 0.53
- SpO2 During 6MWT change from baseline, Relative Δ ([1]; Pooled ITT, week 48): 21%
- Survival, time to event HR ([1]; Pooled ITT, week 48): 0.42
- UCSD SOBQ (dyspnea) change from baseline, Relative Δ ([1]; Pooled ITT, week 48): −29%
- Worsening IPF, time to event HR ([1]; Pooled ITT, week 48): 0.80
- absolute difference in mean change from baseline % FVC between pirfenidone-treated and placebo-treated groups ([1]; Study 1 and Study 2, novel criteria (% FVC 50%-90%, FEV1/FVC >0.80, time since diagnosis >0.5 years and <48 months), week 48): 6.1%
- relative difference in mean change from baseline % FVC between pirfenidone-treated and placebo-treated groups ([1]; Study 1 and Study 2, novel criteria, week 48): 63.3%
- absolute difference in mean change from baseline % FVC between pirfenidone-treated and placebo-treated groups [1, 3]: 7.9%
- relative difference in mean change from baseline % FVC between pirfenidone-treated and placebo-treated groups [1, 3]: 57.0%
- absolute difference in mean change from baseline % FVC between pirfenidone-treated and placebo-treated groups [1, 4]: 3.3%
- relative difference in mean change from baseline % FVC between pirfenidone-treated and placebo-treated groups [1, 4]: 41.6%
- absolute difference in mean change from baseline % FVC between pirfenidone-treated and placebo-treated groups [1, 5]: 2.5%
- relative difference in mean change from baseline % FVC between pirfenidone-treated and placebo-treated groups [1, 5]: 22.8%
- Interaction with Treatment: Group with Greater Pirfenidone Effect ([1]; variable % FVC (90%), P-value 0.096): FVC <90%
- Interaction with Treatment: Group with Greater Pirfenidone Effect ([1]; variable Time since Diagnosis of IPF (0.5 yrs), P-value 0.043): Time >0.5 years

B1: Actimmune: a different drug, interferon gamma-lb, inert with respect to effect on efficacy outcomes in IPF (protein, UniProt P01579 24-161, looked up)
Interferon gamma: QDPYVKEAENLKKYFNAGHSDVADNGTLFLGILKNWKEESDRKIMQSQIVSFYFKLFKNFKDDQSIQKSVETIKEDMNVKFFNSNKKKRDDFEKLTNYSVTDLNVQRKAIHELIQVMAELSPAAKTGKRKRSQMLFRG
- effect on FVC progression / efficacy outcomes [2]: does not have an effect on these outcomes
